We go through one compound from publication PMC9956360, “Production of a Fungal Punicalagin-Degrading Enzyme by Solid-State Fermentation: Studies of Purification and Characterization” (Foods, 2023).

For the test, the system named is T1, EAH (EAH 1 and EAH 2), ellagitannin-acyl hydrolase identified as alpha-L-arabinofuranosidase.
T1 construct: gene abfB; native secreted protein from solid-state fermentation, co-purified mixture; 499 residues each; domains ArabFuran-catal (20-334 / 20-333) and AbfB (352-493)
Nature of the test: Lineweaver-Burk. Conditions: mixture of two co-purified isoforms; temperature and pH of kinetics not stated. The class given is biochemical, Aspergillus niger. From the text:
Lineweaver-Burk on EAH (EAH 1 and EAH 2), ellagitannin-acyl hydrolase identified as alpha-L-arabinofuranosidase

SMILES strings stand for the structures.

`COC(=O)c1cc(O)c(O)c(O)c1` [methyl gallate]: the Km was 6.66 mM.
